Experimental data published in EP0563386A1, “ANTICANCER COMPOSITION AND COMPOUND” (NIPPON SHINYAKU COMPANY, LIMITED, priority 1990, dated 1992).
Counter-ions that a name gives are not always drawn.

Tests used:
[1] = tested on: WiDr (human colon cancer); assay: Tumor growth inhibition, WiDr implant in nude mice (Test Example 1); type: in vivo, BALB/c nude mice; conditions: implant volume on day 18 after transplantation divided by volume at transplantation; irsogladine maleate 10 mg/kg orally once daily from day 14; cyclophosphamide 150 mg/kg intraperitoneally once on day 14; groups of 10
Protocol: WiDr (human colon cancer) cells subcultured in BALB/c nude mice were dissected to prepare cubes, about 2 mm³ each. These cubes were transplanted subaxillarily into separate BALB/c nude mice using a transplantation needle. The animals were divided into groups of 10 individuals on day 10 after transplantation and the body weight and the diameter of the implant were serially determined. As the compound of this invention, irsogladine maleate, 10 mg/kg, was suspended in 0.5% methylcellulose solution and administered orally once daily beginning day 14 after transplantation. Cyclophosphamide, 150 mg/kg, was dissolved in PBS and administered intraperitoneally once on day 14 after transplantation. The control group received 0.5% methylcellulose solution orally once daily beginning day 14 after transplantation.
The volume of the implant on day 18 after transplantation was divided by the volume at trans plantation. […]
The effect of the compound of this invention as an anticancer agent is clear.

[2] = tested on: Meth A fibrosarcoma; assay: Meth A fibrosarcoma tumor volume in mice (Test Example 2); type: in vivo, BALB/c mice
Protocol: • (1) The homologus tumor Meth A fibrosarcoma subcultured (ascites type) in BALB/c mice, 5 x 10^5 cells, was transplanted subcutaneously at the flank of 6-week-old male BALB/c mice. Mice having a tumor volume of 70-100 mm³ were selected and divided into groups of 9. Oral single daily administration of the test compound was started and the body weight and tumor volume were serially determined. The volume was determined using the same calculation formula as shown in Test Example 1. The compound of the invention irsogladine maleate, 10 mg/kg, suspended in 0.5% methylcellulose maleate and 5-fluorouracil, 15 mg/kg, dissolved in 0.5% methylcellulose solution were respectively administered orally. The control group received 0.5% methylcellulose solution orally. […] The effect of the com pound of this invention as an anticancer agent is, thus, clear. • (2) As in the above test, mice having a tumor volume of 160-180 mm³ were selected and subjected to the same test as above. The compound of this invention irsogladine maleate, 10 mg/kg, 5-flurorouracil, 30 mg/kg, or as a combination therapy, irsogladine maleate, 10 mg/kg, plus 5-fluorouracil, 30 mg/kg, were administered orally. The control group received the same control material as in the above test orally. […] The anticancer adjuvant activity of the compound of this invention to 5-FU is clear.
The open circle stands for control, the open triangle for 5-FU and the closed circle for the compound of the invention. The tumor volume (mm³) is plotted on the vertical axis and the number of days after drug administration on the horizontal axis.
The open circle stands for control, the open triangle for F-5U, the closed circle for the compound of the invention, the open square for the combination therapy. The tumor volume (mm³) is plotted on the vertical axis and the number of days after drug administration on the horizontal axis.

[3] = tested on: cancer patients; assay: Clinical use with radiotherapy and chemotherapy, 45 cancer cases (Test Example 7); type: in vivo
Protocol: (§1) Predetermined radiotherapy [each proven focus was irradiated with cobalt 60 gamma rays, about 28 Gy, in simply divided doses at intervals of several days and oily bleomycin was administered intramuscularly in a dose range of 0.5-3 mg/day (a total of not more than 50 mg) 30 minutes before and 30 minutes after each irradiation] was given to the following cancer patients and concomitantly the following prescription was given orally.

[4] = tested on: cancer patients; assay: Clinical use with radiotherapy and chemotherapy, 39 case reports (Test Example 8); type: in vivo
Protocol: as §1, with “[…],” for “about 28 Gy,”
Following Test Example 7, the clinical effect was investigated. Radiotherapy, chemotherapy and administration of irsogladine maleate were performed in the same manner as in Test Example 7.

Q: Which Tumor volume ratio [1] does the source give for `Nc1nc(N)nc(-c2cc(Cl)ccc2Cl)n1` [irsogladine maleate] here?
A: 1.52 ± 0.08

Q: What about the “tumor volume (effect versus 5-FU)” value ([2]; Test (1): start tumor volume 70-100 mm³, irsogladine maleate 10 mg/kg orally once daily, comparator 5-fluorouracil 15 mg/kg orally, Fig. 1) of the same compound?
A: effect comparable to that of 5-FU, 15 mg/kg

Q: And the “tumor-inhibitory effect, single drug” value ([2]; Test (2): start tumor volume 160-180 mm³, irsogladine maleate 10 mg/kg or 5-fluorouracil 30 mg/kg orally, Fig. 2)?
A: tumor-inhibitory effect

Q: And the “tumor-inhibitory effect, combination therapy” value ([2]; Test (2): start tumor volume 160-180 mm³, irsogladine maleate 10 mg/kg plus 5-fluorouracil 30 mg/kg orally, Fig. 2)?
A: more remarkable

Q: And the “disappearance of tumor by palpation or diagnostic imaging” value ([3]; 11 cases of breast cancer, 4 weeks after initiation, 2 mg/day x 2 orally with radiotherapy and chemotherapy)?
A: disappearance of tumor was confirmed

Q: What about the “disappearance of tumor by palpation or diagnostic imaging” value ([3]; 13 cases of pharyngeal cancer and cancer of upper esophagus, 4 weeks after initiation, 2 mg/day x 2 orally with radiotherapy and chemotherapy) of the same compound?
A: disappearance of tumor was confirmed

Q: What about the “cases with disappearance of tumor confirmed by palpation or diagnostic imaging” value ([3]; all 45 cases of Test Example 7) of the same compound?
A: 45 cases

Q: What about the “disappearance of tumor by palpation or diagnostic imaging” value ([3]; five cases of rectal cancer, 4 weeks after initiation, 2 mg/day x 2 orally with radiotherapy and chemotherapy) of the same compound?
A: disappearance of tumor was confirmed

Q: What about the “disappearance of tumor by palpation or diagnostic imaging” value ([3]; nine cases of maxillary cancer and epipharyngeal cancer, 4 weeks after initiation, 2 mg/day x 2 orally with radiotherapy, bleomycin, carmofur, doxifluridine, tegafur) of the same compound?
A: disappearance of tumor was confirmed

Q: And the “cases with disappearance of tumor histologically verified by biopsy” value ([3]; of the 45 cases of Test Example 7)?
A: 14 cases

Q: And the “disappearance of tumor by diagnostic imaging” value ([3]; one case of stomach cancer, 4 weeks after initiation, 2 mg/day x 2 orally with radiotherapy and chemotherapy)?
A: disappearance of tumor was confirmed

Q: What about the “disappearance of tumor by palpation or diagnostic imaging” value ([3]; six cases of bladder cancer, renal cancer, ovarian cancer, etc., 4 weeks after initiation, 2 mg/day x 2 orally with radiotherapy and chemotherapy) of the same compound?
A: disappearance of tumor was confirmed

Q: And the clinical outcome ([4]; (1) case (1): person, SCC of the pharynx metastasized to the right neck, about 15 days, with irradiation and chemotherapy)?
A: complete resoltuion of the tumor

Q: What about the clinical outcome ([4]; (1) case (2): person, SCC of the pharynx metastasized to the left neck, with radiotherapy and chemotherapy) of the same compound?
A: complete resolution of the tumor

Q: And the clinical outcome ([4]; (1) case (3): person, pharyngeal cancer with lymph node and lung metastasis, with radiotherapy and chemotherapy)?
A: complete resolution of the tumor

Q: What about the clinical outcome ([4]; (1) case (4): person, SCC of the anterior association of the vocal cord, pharyngeal cancer, with radiotherapy and chemotherapy) of the same compound?
A: complete resolution of the tumor

Q: What about the clinical outcome ([4]; (1) case (5): person, SCC of the pharynx, metastasis to the mediastinum, with radiotherapy and chemotherapy) of the same compound?
A: complete resolution of the tumor

Q: And the clinical outcome ([4]; (1) case (6): person, tumor in the anterior association of the vocal cord, with radiotherapy and chemotherapy)?
A: partial resolution of the tumor

Q: What about the clinical outcome ([4]; (1) case (7): person, SCC of the pharynx, with radiotherapy and chemotherapy) of the same compound?
A: complete resolution of the tumor

Q: And the clinical outcome ([4]; (2) case (1): person, TCC of the ureter, after resection, with radiotherapy and chemotherapy)?
A: complete resolution of the tumor

Q: What about the clinical outcome ([4]; (2) case (2): person, TCC of the ureter, relapsed, with radiotherapy and chemotherapy) of the same compound?
A: partial resolution of the tumor

Q: What about the clinical outcome ([4]; (3) case (1): person, SCC of the tongue, metastasis to the left neck, with radiotherapy and chemotherapy) of the same compound?
A: complete resolution of the tumor

Q: And the clinical outcome ([4]; (3) case (2): person, SCC of the tongue with metastasis to the left neck, with radiotherapy and chemotherapy)?
A: complete resolution of the tumor

Q: And the clinical outcome ([4]; (4) case (1): person, recurrent breast cancer with bone metastasis, with radiotherapy and chemotherapy)?
A: died of injury of cervical vertebra and paraplegia

Q: What about the clinical outcome ([4]; (4) case (2): person, recurrent breast cancer, invasive duct carcinoma, with radiotherapy and chemotherapy) of the same compound?
A: complete resolution of the tumor

Q: And the clinical outcome ([4]; (5) case (1): person, breast cancer (first on-set), 3 months, with radiotherapy, chemotherapy and resection)?
A: complete resolution of the tumor

Q: What about the clinical outcome ([4]; (6) case (1): person, SCC of the epipharynx, metastases to lung and lumbar vertebra, with radiotherapy and chemotherapy) of the same compound?
A: partial resolution of the tumor

Q: What about the clinical outcome ([4]; (6) case (2): person, SCC of epipharynx with metastasis to the right neck, with radiotherapy and chemotherapy) of the same compound?
A: complete resolution of the tumor

Q: What about the clinical outcome ([4]; (6) case (3): person, pulmonary metastasis from epipharynx SCC, with radiotherapy and chemotherapy, patient later died after mixed infection) of the same compound?
A: tumor disappeared

Q: And the clinical outcome ([4]; (6) case (4): person, maxillary/epipharyngeal cancer group, with irradiation and chemotherapy)?
A: partially resolved

Q: And the clinical outcome ([4]; (7) case (1): person, tumor of the right anterior ear, SCC of parotid gland, with radiation therapy and chemotherapeutic agents)?
A: tumor disappeared

Q: And the clinical outcome ([4]; (7) case (2): person, SCC of the right external auditory canal, with radiotherapy, chemotherapy and resection)?
A: complete resolution

Q: And the clinical outcome ([4]; (7) case (3): person, SCC relapsed in the left anterior ear, with radiotherapy, chemotherapy and resection)?
A: completely disappeared

Q: And the clinical outcome ([4]; (8) case (1): person, metastatic lung cancer, primary rectal cancer, dotted shadow of right lower lung field, with radiotherapy and chemotherapy)?
A: reduced to 1/4

Q: What about the clinical outcome ([4]; (8) case (2): person, metastatic lung cancer, primary hypopharynx cancer, with radiotherapy and chemotherapy) of the same compound?
A: disappeared completely

Q: And the clinical outcome ([4]; (8) case (3): person, metastatic lung cancer, primary esophageal cancer (upper), with radiotherapy and chemotherapy)?
A: disappeared completely

Q: What about the clinical outcome ([4]; (8) case (4): person, primary pharyngeal cancer, metastases to hili of the lung, with radiotherapy and chemotherapy) of the same compound?
A: the enlargement of the pharynx and of the hili of the lung disappeared

Q: And the clinical outcome ([4]; (8) case (5): person, primary pancreatic carcinoma, pulmonary metastasis, with radiotherapy and chemotherapy)?
A: disappeared completely

Q: What about the clinical outcome ([4]; (8) case (6): person, primary colon cancer, pulmonary metastasis, with radiotherapy and chemotherapy) of the same compound?
A: Partial resolution

Q: What about the clinical outcome ([4]; (9) case (1): person, recurrent ovarian cancer, with chemotherapeutic agents) of the same compound?
A: remained unchanged

Q: What about the clinical outcome ([4]; (9) case (2): person, ovarian cancer, metastases to Virchow's nodes, abdominal tumor, with radiotherapy and chemotherapy) of the same compound?
A: disappeared completely

Q: What about the clinical outcome ([4]; (9) case (3): person, uterine cancer, SCC, with radiation therapy (40 Gy) and chemotherapy) of the same compound?
A: partial resolution of the tumor

Q: And the clinical outcome ([4]; (9) case (4): person, stomach cancer with ascites, after resection, with irradiation and chemotherapy)?
A: died of DIC

Q: What about the clinical outcome ([4]; (10) case (1): person, colorectal cancer, tubular ADC, with radiotherapy and chemotherapy) of the same compound?
A: died of mixed infection

Q: What about the clinical outcome ([4]; (10) case (2): person, colorectal cancer with pulmonary and nodal metastasis, ascites, with radiotherapy and chemotherapy) of the same compound?
A: ascites were reduced and the patient became ambulant

Q: What about the clinical outcome ([4]; (10) case (3): person, tumor of the right hypogastrium, CK and ADC, with radiotherapy and chemotherapy) of the same compound?
A: ascites were removed

Q: And the clinical outcome ([4]; (11) case (1): person, liposarcoma of the left chest wall with metastasis to the right mediastinum, with radiotherapy and chemotherapy)?
A: Partial resolution

Q: And the clinical outcome ([4]; (11) case (2): person, pelvic chondrosarcoma, treatment from November 1990 with radiotherapy and chemotherapy)?
A: living as of February 1991

Q: What about the clinical outcome ([4]; (11) case (3): person, chondrosarcoma of the right leg, pulmonary metastasis, with radiotherapy and chemotherapy) of the same compound?
A: Pain was relieved

Q: What about the clinical outcome ([4]; (11) case (4): person, malignant lymphoma, tumor 4 x 4 cm at start, with radiotherapy and chemotherapy) of the same compound?
A: Complete resolution

Q: What about the clinical outcome ([4]; (11) case (5): person, malignant multiple schwannoma vertebrae, with radiotherapy and chemotherapy) of the same compound?
A: paralysis of limbs was found

Q: And the patients who died ([4]; of the 39 patients of Test Example 8)?
A: four

Q: And the “complete or partial resolution, overall” value ([4]; summary of the 39 patients of Test Example 8)?
A: no patients in whom complete or partial resolution was not obtained
